These results are taken from ChEMBL document CHEMBL1129657, “Tetrahydrobenzothiophenone derivatives as a novel class of adenosine receptor antagonists” (J Med Chem, 1996).

The target in assay [1] is T1, Adenosine receptor A2a (Rattus norvegicus, UniProt P30543).
Description: (§1) Displacement [3H]-CGS-21,680 from Adenosine A2A receptor in rat striatal membrane.
The next assay addresses T2, Adenosine receptor A1 (Rattus norvegicus, UniProt P25099).
T2 sequence (P25099 whole entry): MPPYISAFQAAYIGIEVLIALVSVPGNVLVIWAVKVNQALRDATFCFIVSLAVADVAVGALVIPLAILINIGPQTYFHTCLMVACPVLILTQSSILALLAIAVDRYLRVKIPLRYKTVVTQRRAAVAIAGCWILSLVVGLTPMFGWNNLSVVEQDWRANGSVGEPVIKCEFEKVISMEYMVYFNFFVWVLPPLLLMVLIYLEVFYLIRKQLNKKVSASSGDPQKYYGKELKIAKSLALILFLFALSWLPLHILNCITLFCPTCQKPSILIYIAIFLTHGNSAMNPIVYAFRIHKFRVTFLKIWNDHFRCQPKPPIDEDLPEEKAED
Briefly: Tested for the displacement [3H]PIA from Adenosine A1 receptor in rat brain membrane. The format is cell membranes.

The target of assay [2] is Adenosine receptors; A1 & A2a (Rattus norvegicus) (UniProt P25099+P30543). Briefly: Selectivity for adenosine A2a and A1 receptors. In kind it is protein assay.
Assay [3] has as its target T3, Adenosine receptor A3 (Rattus norvegicus, UniProt P28647).
T3 sequence (P28647 whole entry): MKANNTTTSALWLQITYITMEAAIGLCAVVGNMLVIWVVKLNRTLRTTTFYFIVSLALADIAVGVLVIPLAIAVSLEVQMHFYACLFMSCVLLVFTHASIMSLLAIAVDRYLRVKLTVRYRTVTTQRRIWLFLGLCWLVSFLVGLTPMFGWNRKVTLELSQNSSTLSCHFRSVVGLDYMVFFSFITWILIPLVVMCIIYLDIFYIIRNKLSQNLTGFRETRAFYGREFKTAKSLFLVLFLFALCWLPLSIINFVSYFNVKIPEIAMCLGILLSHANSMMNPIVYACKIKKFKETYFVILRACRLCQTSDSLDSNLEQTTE
Briefly: Displacement of [125I]AB-MECA from rat Adenosine A3 receptor expressed in CHO cell membrane. In kind it is cell membranes. Background: In a radioligand displacement assay an active substance lowers the binding of a labelled ligand.

Assay [4] has as its target T4, Adenosine receptor A3 (Homo sapiens, UniProt P0DMS8).
T4 sequence (P0DMS8 whole entry): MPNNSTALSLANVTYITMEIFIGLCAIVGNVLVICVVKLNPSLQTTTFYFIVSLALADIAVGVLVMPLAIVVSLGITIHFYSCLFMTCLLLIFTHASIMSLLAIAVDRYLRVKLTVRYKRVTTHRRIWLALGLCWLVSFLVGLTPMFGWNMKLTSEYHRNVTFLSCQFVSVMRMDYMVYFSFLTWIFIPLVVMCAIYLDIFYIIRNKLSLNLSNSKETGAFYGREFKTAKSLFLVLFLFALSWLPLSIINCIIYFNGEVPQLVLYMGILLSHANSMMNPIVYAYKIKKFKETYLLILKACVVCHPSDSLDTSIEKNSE
The assay can be described thus: Displacement of [125I]AB-MECA from human Adenosine A3 receptor expressed in HEK293 cell membrane. The format is cell membranes.

The target of assay [5] is Adenosine A1 receptor (Rattus norvegicus) (UniProt P25099). The assay can be described thus: Selectivity for rat adenosine A3 and rat adenosine A1 receptors.
Assay [6] deals with Adenosine receptor A2a (Rattus norvegicus) (UniProt P30543). The assay can be described thus: Displacement [3H]CGS-21680 from Adenosine A2A receptor in rat striatal membrane. The following applies: Striatum, concentration not given here. Also noted: concentration or dose not given beside the values. In kind it is cell membranes.
In assay [7] the target is T1, Adenosine receptor A2a. The source holds these as a separate data set.
Description: as §1
Assay [8] has as its target T5, Adenosine receptor A3 (Homo sapiens) (UniProt P0DMS8).
T5 sequence (whole entry): T4 sequence (P0DMS8 whole entry)
The assay can be described thus: Displacement of [125I]AB-MECA from human Adenosine A3 receptor expressed in HEK293 cell membrane at 10e-4 M. The format is cell membranes.

For assay [9], the target named is T6, Adenosine receptor A1 (Rattus norvegicus) (UniProt P25099).
T6 sequence (whole entry): T2 sequence (P25099 whole entry)
The assay can be described thus: Displacement of [3H]PIA from Adenosine A1 receptor of rat brain membrane at 10e-4 M.

Values joined by “and” are separate entries in the source; they are usually repeats but may differ in a detail not shown here. Equal values may be shown once.

Sequence of Adenosine receptors; A1 & A2a (Rattus norvegicus) (P30543 whole entry, looked up, one chain of several): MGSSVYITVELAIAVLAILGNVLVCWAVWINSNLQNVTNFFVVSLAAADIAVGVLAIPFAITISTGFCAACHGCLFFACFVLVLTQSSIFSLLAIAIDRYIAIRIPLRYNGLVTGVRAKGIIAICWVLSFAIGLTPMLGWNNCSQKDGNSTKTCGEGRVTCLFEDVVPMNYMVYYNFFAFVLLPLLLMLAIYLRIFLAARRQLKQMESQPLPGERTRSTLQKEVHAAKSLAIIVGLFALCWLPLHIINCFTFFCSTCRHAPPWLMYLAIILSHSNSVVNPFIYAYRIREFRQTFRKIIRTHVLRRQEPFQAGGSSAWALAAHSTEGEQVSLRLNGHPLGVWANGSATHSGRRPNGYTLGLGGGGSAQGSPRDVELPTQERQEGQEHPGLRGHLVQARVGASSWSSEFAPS
T1 sequence (P30543 whole entry): as the sequence (P30543 whole entry, looked up, one chain of several) above
Sequence of Adenosine receptor A2a (Rattus norvegicus) (P30543 whole entry): as the sequence (P30543 whole entry, looked up, one chain of several) above

As for `Nc1nc2ccc(Cl)cc2n2c(-c3ccccc3)nnc12`, the Ki – broadly, a dissociation constant, usually derived from enzyme kinetics or from competition with a known ligand – at Adenosine receptor A2a [1] was determined as 0.021 µM.

With `Nc1nc2ccccc2n2cc(-c3ccccc3)nc12`, the Ki at Adenosine receptor A1 was 0.034 µM; on Adenosine receptor A2a [1], 0.29 µM.

As to `CCOC(=O)c1sc(NN)c2c1CCCC2=O`, the Selectivity in assay [2] was determined as 2.1. Also, the Ki was determined as 17.5 µM on Adenosine receptor A1 and 36.1 µM on Adenosine receptor A2a [1].

Consider `O=C(O)c1sc(SCc2ccccc2)c2c1CCCC2=O`, for which the Selectivity in assay [2] is 0.3. Besides, the Ki on Adenosine receptor A1 is 50 µM; at Adenosine receptor A3 [3] it was 42 µM; on Adenosine receptor A3 [4] it was 117 µM; on Adenosine receptor A2a [1] it was 15.2 µM.

With `CCOC(=O)c1sc(SC(C)C)c2c1CCCC2=O`, the Selectivity in assay [2] is 2.6. Also, the inhibitory constant (Ki) stood at 1.79 µM at Adenosine receptor A1 and 4.63 µM on Adenosine receptor A2a [1].

Take `CCCCSc1sc(C(=O)OCC)c2c1C(=O)CCC2`: the Selectivity in [2] was 11. Also, the inhibition constant Ki at Adenosine receptor A1 amounted to 1.42 µM; on Adenosine receptor A2a [1], 15.6 µM.

As for `CCOC(=O)CSc1sc(C(=O)OCC)c2c1C(=O)CCC2`, the Selectivity in assay [2] turned out to be 11.5; in [5] it was 4.59. The Ki at Adenosine receptor A1 was 2.22 µM; at Adenosine receptor A3 [3], 10.2 µM; on Adenosine receptor A2a [1], 25.6 µM.

Regarding `CCOC(=O)c1sc(SCc2ccccc2)c2c1CC(C)(C)CC2=O`, the Selectivity in [2] was > 17.6. On Adenosine receptor A1, this molecule gave a Ki of 0.567 µM. The inhibition – broadly, the share of the control response that was lost under treatment – in [6] stood at 34%.

Take `CCOC(=O)c1sc(SC)c2c1CCCC2=O`: the Selectivity in assay [2] was 1.9; in [5], 7.88. In addition, the Ki on Adenosine receptor A1 worked out at 1.93 µM; on Adenosine receptor A3 [3], 15.2 µM; at Adenosine receptor A2a [1] it was 3.66 µM.

As for `CCOC(=O)c1sc(SC)c2c1CCCC2O` (stereo not drawn), the Selectivity stood at 1.8 in assay [2] and 0.84 in assay [5]. In addition, the Ki came out at 18.3 µM on Adenosine receptor A1, 15.4 µM on Adenosine receptor A3 [3], 35.8 µM at Adenosine receptor A3 [4] and 33.5 µM at Adenosine receptor A2a [1].

On to `O=c1c(-c2ccc(O)cc2)coc2cc(O)cc(O)c12` [GENISTEIN], for which the affinity on Adenosine receptor A2a [1], expressed as Ki, was 36 µM.

`CCOC(=O)c1sc(SCc2ccccc2)c2c1CCCC2=O`: the Ki at Adenosine receptor A2a [7] was 1.36 µM; at Adenosine receptor A1 it was 0.72 µM and 0.715 µM; at Adenosine receptor A2a [1], 1.36 µM. In [2], this molecule showed a Selectivity of 1.9. For the same molecule, the inhibition in [8] is 24%.

In the case of `CSc1scc2c1C(=O)CCC2`, in assay [2], the Selectivity is > 1. In addition, the inhibition was 28% in [9] and < 10% in [6].

`CCOC(=O)c1sc(S(C)(=O)=O)c2c1CC(C)(C)CC2=O`: the Selectivity in assay [2] was > 3.1; in assay [5], 1.58. Besides, the Ki on Adenosine receptor A1 was 32.7 µM; on Adenosine receptor A3 [3], 51.8 µM. Also, the inhibition in [6] came out at 13%.

With `CCCSc1sc(C(=O)OCC)c2c1C(=O)CCC2`, the Selectivity in assay [2] was found to be 3.7. Further, the Ki at Adenosine receptor A1 came to 1.26 µM; at Adenosine receptor A2a [1], 4.69 µM.

Molecule `Nc1nc2ccc(Cl)cc2c2nc(-c3ccco3)nn12` [CGS-15943] showed a Ki at Adenosine receptor A2a [1] of 3.3 µM.

`CCOC(=O)c1sc(SCC)c2c1CC(C)(C)CC2=O` gave a Ki at Adenosine receptor A2a [1] of 23.9 µM.

Take `CCOC(=O)c1sc(SC)c2c1CCC/C2=N/OC`: the Selectivity in assay [2] was > 1.4. On Adenosine receptor A1, this molecule registered a Ki of 69.8 µM. Further, the inhibition in assay [6] was 22%.

On to `CSc1sc(C(=O)NN)c2c1C(O)CCC2` (stereo not drawn), for which the Selectivity in [2] was > 1.4. The molecule also gave an inhibition constant (Ki) on Adenosine receptor A1 of 71.2 µM. The molecule further returned an inhibition in assay [6] of 28.9%.

In the case of `CCOC(=O)c1sc(SC(C)CC)c2c1CC(C)(C)CC2=O` (stereo not drawn), the Selectivity in [2] was 29.1. The inhibition constant (Ki) at Adenosine receptor A1 stood at 3.64 µM; on Adenosine receptor A2a [1], 106 µM.

The molecule `COc1cc(-c2oc3c(OC)cc(CCCO)cc3c2C=O)ccc1O` came in with an inhibition constant (Ki) on Adenosine receptor A1 of 0.017 µM.

As to `CSc1sc(C(=O)NN)c2c1C=CCC2`, the Selectivity is > 1.9 in [2] and 0.25 in assay [5]. Also, the inhibition constant (Ki) at Adenosine receptor A1 is 51.6 µM; on Adenosine receptor A3 [3] it was 13.1 µM. In assay [6], the inhibition was < 10%.

Molecule `C=CCSc1sc(C(=O)OCC)c2c1C(=O)CCC2` had a Selectivity in [2] of 5.7. Further, the figures for the inhibition constant (Ki) on Adenosine receptor A1 and on Adenosine receptor A2a [1] were 1.06 µM and 6.04 µM, respectively.
